Reference: ChEMBL document CHEMBL1122718, “Benzylamines: synthesis and evaluation of antimycobacterial properties” (1984)

Legend:
Type in all cases: functional
[1] = system: Mycobacterium tuberculosis; experiment: Minimum inhibitory concentration (MIC) against Mycobacterium tuberculosis H 37 Ra
[2] = system: Mycobacterium tuberculosis; experiment: Compound was evaluated for the minimum inhibitory concentration (MIC) against Mycobacterium tuberculosis H 37 Rv
Mycobacterium marinum = experiment: Minimum inhibitory concentration (MIC) of compound against Mycobacterium marinum SN 1254
[3] = system: Mycobacterium tuberculosis; experiment: Minimum inhibitory concentration (MIC) of compound against Mycobacterium tuberculosis H 37 Rv
Mycobacterium lufu = experiment: Minimum inhibitory concentration (MIC) of compound against Mycobacterium lufu L 209
Mycobacterium avium = experiment: Minimum inhibitory concentration (MIC) of compound against Mycobacterium avium SN 304
[4] = system: Mycolicibacterium smegmatis; experiment: Minimum inhibitory concentration (MIC) of compound against Mycobacterium smegmatis ATCC 607

Compound	MIC [1] [µg/mL]	also measured
CCCCNCc1cccc(Cl)c1.Cl	64	
CNCc1ccc(Cl)c(C(F)(F)F)c1.Cl	> 256	
Cl.NCc1ccc(Cl)c(C(F)(F)F)c1	> 256	
CCCNCc1cccc(Br)c1.Cl	51.2	
CCCCNCc1ccc(Cl)c(Cl)c1.Cl	> 256	
CCCCNCc1ccccc1Cl.Cl	> 256	
CCCNCc1ccc(Cl)c(Cl)c1.Cl	> 256	
CCNCc1ccc(Cl)c(Cl)c1.Cl	> 256	
CNCc1cccc(I)c1.Cl	154	
CNCc1cc(F)cc(Cl)c1.Cl	19.2	
CCCNCc1ccc(Cl)cc1Cl.Cl	> 256	
CC(C)NCc1cccc(Cl)c1.Cl	> 256	
CNCc1ccc(Cl)c(Cl)c1.Cl	> 256	
CNCc1cccc(F)c1.Cl	19.2	
Cl.NCc1cccc(C(F)(F)F)c1	> 256	
CCCNCc1cc(Cl)cc([N+](=O)[O-])c1.Cl	102	
Cl.NCc1cc(F)cc(Cl)c1	32	
CCNCc1ccc(OC)cc1.Cl	> 256	
CNCc1ccc(OC)cc1.Cl	> 256	
CC(C)NCc1cccc(C(F)(F)F)c1.Cl	> 256	
CCNCc1ccc(Cl)cc1Cl.Cl	> 256	
CCNCc1cccc(F)c1.Cl	51.2	
CCNCc1cc(Cl)ccc1Cl.Cl	> 256	
CCCNCc1cccc([N+](=O)[O-])c1.Cl	> 256	

Compound	MIC [1] [µg/mL]	also measured
CNCc1cc(Cl)ccc1Cl.Cl	> 256	
CNCc1cc(F)cc(F)c1.Cl	32	
CCNCc1ccc(Cl)c(C(F)(F)F)c1.Cl	> 256	
CCCCNCc1cccc(C(F)(F)F)c1.Cl	> 256	
CCCCNCc1cc(Cl)ccc1Cl.Cl	> 256	
CCCCNCc1c(Cl)cccc1Cl.Cl	> 256	
CCNCc1cccc([N+](=O)[O-])c1.Cl	> 256	
Cl.NCc1cccc(Br)c1	32	
CC(C)NCc1cccc(F)c1.Cl	> 256	
Cl.NCc1cccc(I)c1	179	
CCCCCNCc1cccc(Cl)c1.Cl	51.2	
CCCCCCNCc1ccccc1.Cl	> 256	
CCCCNCc1ccccc1.Cl	51.2	
CCNCc1cccc(C(F)(F)F)c1.Cl	> 256	
CNCc1cccc(C(F)(F)F)c1.Cl	> 256	
CCNCc1ccccc1Br.Cl	> 256	
CCCNCc1ccc(C(F)(F)F)cc1.Cl	> 256	
CCCCCNCc1cc(Cl)cc(Cl)c1.Cl	128	
CCCNCc1ccc(Cl)c(C(F)(F)F)c1.Cl	> 256	
CCCNCc1cccc(F)c1.Cl	25.6	
CNCc1ccc(C(F)(F)F)cc1.Cl	> 256	
CCCNCc1ccc(OC)cc1.Cl	> 256	
Cl.NCc1cc(F)cc(F)c1	57.6	
CNCc1ccc(Cl)cc1Cl.Cl	> 256	

Compound	MIC [1] [µg/mL]	also measured
Cl.NCc1ccc(Cl)cc1Cl	> 256	
Cl.NCc1cc(Cl)ccc1Cl	76.8	
CCCCNCc1cccc(Br)c1.Cl	38.4	
CCCCCCCNCc1ccccc1.Cl	> 256	
CCNCc1cc(Cl)cc(Cl)c1.Cl	17.9	
CCCCNCc1ccccc1Br.Cl	> 256	
Cl.N#Cc1cccc(CN)c1	128	
CCCCNCc1cc(F)cc(Cl)c1.Cl	19.2	
CCCCNCc1cccc(I)c1.Cl	205	
CC(C)NCc1cccc(C#N)c1.Cl	> 256	
CNCc1ccc(Cl)cc1.Cl	> 256	
CCCCCNCc1cccc(C#N)c1.Cl	76.8	
CNCc1ccccc1.Cl	102	
CCCNCc1cc(Cl)cc(Cl)c1.Cl	20.4	
CCCCCNCc1cccc([N+](=O)[O-])c1.Cl	> 256	
Cl.NCc1ccc(C(F)(F)F)cc1	> 256	
CCCNCc1cccc(C(F)(F)F)c1.Cl	> 256	
Cl.NCc1cccc([N+](=O)[O-])c1	179	
CNCc1cccc(C#N)c1.Cl	51.2	
CCNCc1c(Cl)cccc1Cl.Cl	> 256	
CCCCNCc1cccc(F)c1.Cl	25.6	MIC [2]: 30 µg/mL
CC(C)NCc1cccc([N+](=O)[O-])c1.Cl	> 256	
CNCc1c(Cl)cccc1Cl.Cl	> 256	
CCCCNCc1ccc(Br)cc1.Cl	> 256	

Compound	MIC [1] [µg/mL]	also measured
CCCNCc1cccc(C#N)c1.Cl	76.8	
CCCCNCc1cc(Cl)cc([N+](=O)[O-])c1.Cl	205	
CCNCc1cccc(I)c1.Cl	> 256	
CCNCc1ccccc1.Cl	205	
CCCNCc1cc(F)cc(Cl)c1.Cl	25.6	
Cl.NCc1ccccc1	76.8	
CNCc1ccccc1Cl.Cl	> 256	
CCCNCc1cccc(I)c1.Cl	256	
CCCCNCc1ccc(Cl)cc1.Cl	> 256	
CNCc1ccc(Br)cc1.Cl	> 256	
CCCCNCc1ccc(C(F)(F)F)cc1.Cl	> 256	
CCCCNCc1cccc([N+](=O)[O-])c1.Cl	> 256	
CCCNCc1ccccc1.Cl	51.2	
CCCCCNCc1cccc(F)c1.Cl	51.2	
COc1ccc(CN)cc1.Cl	> 256	
CCCNCc1c(Cl)cccc1Cl.Cl	> 256	
CCNCc1cccc(C#N)c1.Cl	102	
Cl.NCc1c(Cl)cccc1Cl	> 256	
CCCCCNCc1ccccc1.Cl	154	
CNCc1cc(Cl)cc([N+](=O)[O-])c1.Cl	128	
CCCCNCc1ccc(Cl)c(C(F)(F)F)c1.Cl	> 256	
Cl.NCc1ccc(Cl)c(Cl)c1	> 256	
Cl.NCc1cc(Cl)cc(Cl)c1	20.4	
CCCNCc1cc(Cl)ccc1Cl.Cl	> 256	

Compound	MIC [1] [µg/mL]	also measured
CCNCc1cc(Cl)cc([N+](=O)[O-])c1.Cl	102	
CCCNCc1cc(F)cc(F)c1.Cl	19.2	
CCCCNCc1cccc(C#N)c1.Cl	51.2	
Cl.NCc1cccc(F)c1	51.2	
CCCCNCc1cc(F)cc(F)c1.Cl	6.4	MIC (Mycobacterium marinum): 6 µg/mL; MIC [3]: 4 µg/mL; MIC (Mycobacterium lufu): 8 µg/mL; MIC (Mycobacterium avium): 3 µg/mL; MIC [4]: 32 µg/mL
CCNCc1ccc(C(F)(F)F)cc1.Cl	> 256	
CCCCCNCc1cc(F)cc(F)c1.Cl	32	
CNCc1cccc(Br)c1.Cl	19.2	
CCNCc1cc(F)cc(Cl)c1.Cl	32	
CCNCc1cc(F)cc(F)c1.Cl	44.8	
CCCNCc1cccc(Cl)c1.Cl	17.9	
CCCCCCCNCc1cc(Cl)cc(Cl)c1.Cl	154	
CCNCc1cccc(Br)c1.Cl	64	
CCCCCNCc1cccc(C(F)(F)F)c1.Cl	> 256	
CNCc1cccc([N+](=O)[O-])c1.Cl	256	
Cl.NCc1cccc(Cl)c1	17.9	
CCCCNCc1cc(Cl)cc(Cl)c1.Cl	64	
CCCCNCc1ccc(Cl)cc1Cl.Cl	> 256	
CCNCc1cccc(Cl)c1.Cl	25.6	
CCCCCCCCNCc1ccccc1.Cl [BENZYL(OCTYL)AMINE HYDROCHLORIDE]	> 256	
